Where a name gives a salt, the structure may show the parent alone. A value given as a limit tells only on which side of the number the result lay.

In this assay the target is T1, TLR7/NFKb HEK cells (Homo sapiens, UniProt Q9NYK1).
T1 construct: expressed in transfected cells; host or cells: HEK cells (TLR7/NFKb reporter line)
T1 sequence (Q9NYK1 27-1049): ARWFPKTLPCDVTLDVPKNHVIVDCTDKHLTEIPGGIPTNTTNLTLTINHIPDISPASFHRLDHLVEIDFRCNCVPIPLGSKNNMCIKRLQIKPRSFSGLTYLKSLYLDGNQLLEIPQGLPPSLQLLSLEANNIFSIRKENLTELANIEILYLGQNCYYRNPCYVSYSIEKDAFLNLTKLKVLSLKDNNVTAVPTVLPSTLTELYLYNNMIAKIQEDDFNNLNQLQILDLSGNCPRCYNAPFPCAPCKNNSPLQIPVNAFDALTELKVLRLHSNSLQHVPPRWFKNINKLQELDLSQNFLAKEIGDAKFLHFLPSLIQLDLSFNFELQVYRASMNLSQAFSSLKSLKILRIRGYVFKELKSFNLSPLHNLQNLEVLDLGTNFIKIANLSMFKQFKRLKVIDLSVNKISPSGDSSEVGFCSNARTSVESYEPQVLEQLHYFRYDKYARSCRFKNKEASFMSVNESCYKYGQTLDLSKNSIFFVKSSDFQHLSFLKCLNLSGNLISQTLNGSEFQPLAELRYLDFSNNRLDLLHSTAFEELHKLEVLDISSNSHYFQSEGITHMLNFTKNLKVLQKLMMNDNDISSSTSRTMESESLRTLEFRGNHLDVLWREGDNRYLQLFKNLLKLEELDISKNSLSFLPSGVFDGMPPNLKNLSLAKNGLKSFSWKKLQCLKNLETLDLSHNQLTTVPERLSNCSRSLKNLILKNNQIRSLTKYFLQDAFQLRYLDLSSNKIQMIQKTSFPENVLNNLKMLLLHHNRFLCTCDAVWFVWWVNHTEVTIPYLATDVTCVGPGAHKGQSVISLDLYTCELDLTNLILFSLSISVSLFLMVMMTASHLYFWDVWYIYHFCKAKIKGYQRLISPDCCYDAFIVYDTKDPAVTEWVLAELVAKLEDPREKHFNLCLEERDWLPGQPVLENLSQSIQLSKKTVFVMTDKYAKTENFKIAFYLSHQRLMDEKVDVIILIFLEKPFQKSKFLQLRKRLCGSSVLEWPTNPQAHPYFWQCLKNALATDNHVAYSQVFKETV
As to the kind of experiment: HEK Cell Assay (TLR7/NFKb reporter, Steady-Glo luciferase readout). It is filed as cell-based. The note with it: 30 min compound preincubation, then R*48 agonist for 5 hours, read-out: Potency. Summed up:
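Steady-Glo luminescence after 5 h stimulation with R*48 agonist, following 30 min compound preincubation. Assay run in HEK cells carrying a TLR7/NFKb luciferase reporter, plated at 5000 cells/well and grown 24 h at 37° C (10% CO2) before treatment.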
On to `CC1(C)C[C@@H](NC(=O)CC(F)(F)F)CN(c2ccc(C#N)c3nccnc23)C1` [Compound 220, N-[(3R)-1-(8-cyanoquinoxalin-5-yl)-5,5-dimethylpiperidin-3-yl]-3,3,3-trifluoropropanamide], for which the IC50 was in the range of 1000 to 10000 nM.

On to `CCN(C)CC(=O)NCC1CCN(c2ccnc3nccnc23)CC1` [Compound 408, 2-(Ethyl-methyl-amino)-N-(1-pyrido[2,3-b]pyrazin-8-yl-piperidin-4-ylmethyl)-acetamide], for which the IC50 lay within 1000 to 10000 nM.

`Cc1ccc(N2C[C@H](N)C[C@H](C(F)(F)F)C2)c2cccnc12` [Compound 586, (3R,5S)-1-(8-Methyl-quinolin-5-yl)-5-trifluoromethyl-piperidin-3-ylamine hydrochloride]: the IC50 is less than 1000 nM. As to `CC(C(=O)NC1CN(c2ccc(C#N)c3nccnc23)CC(F)(F)C1)N1CCC1` (single isomer, unassigned) [Compound 507], the IC50 is less than 1000 nM. To `CC(C(=O)NC1CN(c2ccc(C#N)c3nccnc23)CC(F)(F)C1)N1CCC1` (single isomer, unassigned) [Compound 508] belongs 1000 to 10000 nM; to `CC(C)(C)CC(=O)N[C@H]1C[C@@H](C(F)(F)F)CN(c2ccc(C#N)c3nccnc23)C1` (relative stereo) [Compound 85, cis-N-[1-(8-cyanoquinoxalin-5-yl)-5-(trifluoromethyl)piperidin-3-yl]-3,3-dimethylbutanamide], less than 1000 nM. On to `COc1ccc(N2C[C@@H](C)C[C@@H](NC(=O)[C@@H](O)C(C)C)C2)c2cccnc12` [Compound 188, (2S)-2-hydroxy-N-[(3R,5S)-1-(8-methoxyquinolin-5-yl)-5-methylpiperidin-3-yl]-3-methylbutanamide], for which the IC50 is less than 1000 nM. Next, `CC(C(=O)N[C@@H]1C[C@H](C)CN(c2ccc(C(F)(F)F)c3ncccc23)C1)N1CCC(O)CC1` (stereo partly drawn) [Compound 289, 2-(4-hydroxypiperidin-1-yl)-N-[(3R,5S)-5-methyl-1-[8-(trifluoromethyl)quinolin-5-yl]piperidin-3-yl]propanamide]: less than 1000 nM; `CN1CCN(CC(=O)N[C@@H]2C[C@H](F)CN(c3ccc(C#N)c4nccnc34)C2)CC1` [Compound 502, N-[(3R,5S)-1-(8-Cyano-quinoxalin-5-yl)-5-fluoro-piperidin-3-yl]-2-(4-methyl-piperazin-1-yl)-acetamide]: 1000 to 10000 nM; `CC(C(=O)N[C@@H]1C[C@H](C)CN(c2ccc(C(F)(F)F)c3nccnc23)C1)N1CCC(O)CC1` (single isomer, unassigned) [Compound 371]: less than 1000 nM. To `N#Cc1ccc(N2CC(NC(=O)C(N)C3CC3)CC(C(F)(F)F)C2)c2cccnc12` (single isomer, unassigned) [Compound 487] belongs less than 1000 nM; to `CC(C(=O)N[C@@H]1C[C@H](C)CN(c2ccc(C(F)(F)F)c3ncccc23)C1)N1CCN(C)CC1` (stereo partly drawn) [Compound 516, 2-(4-Methyl-piperazin-1-yl)-N-[(3R,5S)-5-methyl-1-(8-trifluoromethyl-quinolin-5-yl)-piperidin-3-yl]-propionamide], less than 1000 nM; to `CC(C)[C@@H](N)C(=O)N[C@@H]1C[C@H](C)CN(c2ccc(C#N)c3nccnc23)C1` [Compound 102, (2R)-2-amino-N-[(3R,5S)-1-(8-cyanoquinoxalin-5-yl)-5-methylpiperidin-3-yl]-3-methylbutanamide], less than 1000 nM. `C[C@H]1C[C@@H](NCC(N)=O)CN(c2ccc(C(F)(F)F)c3ncccc23)C1` [Compound 570]: the IC50 was less than 1000 nM. Next, `C[C@H]1C[C@@H](NC(=O)[C@H](C)N)CN(c2ccc(C#N)c3nccnc23)C1` [Compound 25, (S)-2-amino-N-((3R,5S)-1-(8-cyanoquinoxalin-5-yl)-5-methylpiperidin-3-yl)propanamide]: less than 1000 nM; `CCC(C)CC(=O)N[C@@H]1C[C@H](C)CN(c2ccc(C#N)c3nccnc23)C1` (single isomer, unassigned) [Compound 150]: less than 1000 nM. To `C[C@H]1C[C@@H](NC(=O)CC2CNC2)CN(c2ccc(C(F)(F)F)c3nccnc23)C1` [Compound 300, 2-(azetidin-3-yl)-N-[(3R,5S)-5-methyl-1-[8-(trifluoromethyl)quinoxalin-5-yl]piperidin-3-yl]acetamide] belongs less than 1000 nM. To `CN(C(=O)CN1CCOCC1)[C@H]1C[C@@H](C2CC2)CN(c2ccc(F)c3ncccc23)C1` (racemic) [Compound 368, cis-N-[5-cyclopropyl-1-(8-fluoroquinolin-5-yl)piperidin-3-yl]-N-methyl-2-(morpholin-4-yl)acetamide] belongs more than 10000 nM. Take `CCN(C)[C@@H](C)C(=O)N[C@@H]1C[C@H](C)CN(c2ccc(C#N)c3nccnc23)C1` [Compound 99, (2S)—N-[(3R,5S)-1-(8-cyanoquinoxalin-5-yl)-5-methylpiperidin-3-yl]-2-[ethyl(methyl)amino]propanamide]: the IC50 is less than 1000 nM. Next, `C[C@H]1C[C@@H](NC(=O)CC2CN(C)C2)CN(c2ccc(C(F)(F)F)c3ncccc23)C1` [Compound 360, N-[(3R,5S)-5-methyl-1-[8-(trifluoromethyl)quinolin-5-yl]piperidin-3-yl]-2-(1-methylazetidin-3-yl)acetamide]: less than 1000 nM. To `COc1cccc(NCC(=O)NCC2CCN(c3ccnc4nccnc34)CC2)c1` [Compound 404, 2-(3-Methoxy-phenylamino)-N-(1-pyrido[2,3-b]pyrazin-8-yl-piperidin-4-ylmethyl)-acetamide] belongs more than 10000 nM. Next, `CN1CCC(NC2CC(C(F)(F)F)CN(c3ccc(C#N)c4nccnc34)C2)C1=O` (single isomer, unassigned) [Compound 227]: 1000 to 10000 nM. `C[C@H]1C[C@@H](NC(=O)CC2CN(C)C2)CN(c2ccc(C(F)F)c3ncccc23)C1` [Compound 364, N-[(3R,5S)-1-[8-(difluoromethyl)quinolin-5-yl]-5-methylpiperidin-3-yl]-2-(1-methylazetidin-3-yl)acetamide]: the IC50 was less than 1000 nM. Next, `C[C@H]1C[C@@H](NC(=O)CC2CNC2)CN(c2ccc(C(F)(F)F)c3ncccc23)C1` [Compound 288, 2-(azetidin-3-yl)-N-[(3R,5S)-5-methyl-1-[8-(trifluoromethyl)quinolin-5-yl]piperidin-3-yl]acetamide]: less than 1000 nM; `CC(C(=O)N[C@@H]1C[C@H](C)CN(c2ccc(C(F)F)c3ncccc23)C1)N1CC(F)(F)C1` (stereo partly drawn) [Compound 311, 2-(3,3-difluoroazetidin-1-yl)-N-[(3R,5S)-1-[8-(difluoromethyl)quinolin-5-yl]-5-methylpiperidin-3-yl]propanamide]: 1000 to 10000 nM. Next, `C[C@H]1C[C@@H](NC(=O)C2CC2(F)F)CN(c2ccc(C#N)c3nccnc23)C1` (stereo partly drawn) [Compound 165, N-[(3R,5S)-1-(8-cyanoquinoxalin-5-yl)-5-methylpiperidin-3-yl]-2,2-difluorocyclopropane-1-carboxamide]: less than 1000 nM; `O=C(CN1CCOCC1)N[C@H]1C[C@@H](C2CC2)CN(c2ccc(F)c3ncccc23)C1` (racemic) [Compound 367, cis-N-[5-cyclopropyl-1-(8-fluoroquinolin-5-yl)piperidin-3-yl]-2-(morpholin-4-yl)acetamide]: more than 10000 nM. To `CNC(=O)[C@@H]1C[C@H](C)CN(c2ccc(C#N)c3nccnc23)C1` (relative stereo) [Compound 541, cis-1-(8-Cyano-quinoxalin-5-yl)-5-methyl-piperidine-3-carboxylic acid methylamide] belongs 1000 to 10000 nM. For the compound `C[C@H]1C[C@@H](NC2CCN(C)C2=O)CN(c2ccc(C#N)c3nccnc23)C1` (single isomer, unassigned) [Compound 124], the IC50 is less than 1000 nM.

Consider `COC(C)C(=O)N[C@@H]1C[C@H](C)CN(c2ccnc3nccnc23)C1` (single isomer, unassigned) [Compound 161], for which the IC50 is more than 10000 nM.
